Target: T1, PDE10A (human) (Homo sapiens, UniProt Q9Y233)
T1 construct: purchased BPS Bioscience
Experiment: Measurement of PDE activity (HTRF cAMP kit), human PDE10A
Type: biochemical
Details: PDE enzymatic reaction, substrate 20 nM for PDE10, 60 minutes at 29 C
Experimental: The recombinant PDE proteins are used in in vitro enzymatic reaction for measurement of PDE activity. These recombinant proteins, including PDE10A (human, rat and mouse PDE10) and isoforms of PDEs 1, 3, 4, and 5, were purchased from commercial vendor BPS Bioscience. The enzymatic activity of PDEs was determined by cAMP measurement kit from CisBio (IBA) using HTRF technology.
The PDE enzymatic reaction was carried out in assay buffer (20 mM Tris-HCl pH7.5, 10 mM MgCl2, 0.1% bovine serum albumin) containing enzyme and substrate. The PDE enzymes concentration ranged from 10 pM-250 pM, depending on each enzyme's specific activity. The substrate cyclic nucleotide (cAMP or cGMP) concentration used in the assay was 20 nM for PDE10, and 100 nM for other PDEs. The inhibitory effect of compound was determined by incubating various concentration of inhibitor in the enzymatic assay. Typically, compound was serial diluted in DMSO then further diluted in assay buffer. Next, the compound at varying concentration was mixed with PDE enzyme. The reaction was initiated by addition of cyclic nucleotide substrate, and incubated for 60 minutes at 29 C. The reaction was stopped by addition of lysis buffer from assay kit. The cAMP-d2 and anti-cAMP cryptate in the lysis buffer detected the level of cAMP left from the PDE hydrolysis reaction. The PDE activity is reversely correlated with the amount of cAMP left in the reaction and can be converted to the percent activity of an uninhibited control (100%). Thus, IC50 value of inhibitor can be obtained by plotting inhibitor concentration against PDE activity at that concentration.

T1 sequence (Q9Y233 whole entry): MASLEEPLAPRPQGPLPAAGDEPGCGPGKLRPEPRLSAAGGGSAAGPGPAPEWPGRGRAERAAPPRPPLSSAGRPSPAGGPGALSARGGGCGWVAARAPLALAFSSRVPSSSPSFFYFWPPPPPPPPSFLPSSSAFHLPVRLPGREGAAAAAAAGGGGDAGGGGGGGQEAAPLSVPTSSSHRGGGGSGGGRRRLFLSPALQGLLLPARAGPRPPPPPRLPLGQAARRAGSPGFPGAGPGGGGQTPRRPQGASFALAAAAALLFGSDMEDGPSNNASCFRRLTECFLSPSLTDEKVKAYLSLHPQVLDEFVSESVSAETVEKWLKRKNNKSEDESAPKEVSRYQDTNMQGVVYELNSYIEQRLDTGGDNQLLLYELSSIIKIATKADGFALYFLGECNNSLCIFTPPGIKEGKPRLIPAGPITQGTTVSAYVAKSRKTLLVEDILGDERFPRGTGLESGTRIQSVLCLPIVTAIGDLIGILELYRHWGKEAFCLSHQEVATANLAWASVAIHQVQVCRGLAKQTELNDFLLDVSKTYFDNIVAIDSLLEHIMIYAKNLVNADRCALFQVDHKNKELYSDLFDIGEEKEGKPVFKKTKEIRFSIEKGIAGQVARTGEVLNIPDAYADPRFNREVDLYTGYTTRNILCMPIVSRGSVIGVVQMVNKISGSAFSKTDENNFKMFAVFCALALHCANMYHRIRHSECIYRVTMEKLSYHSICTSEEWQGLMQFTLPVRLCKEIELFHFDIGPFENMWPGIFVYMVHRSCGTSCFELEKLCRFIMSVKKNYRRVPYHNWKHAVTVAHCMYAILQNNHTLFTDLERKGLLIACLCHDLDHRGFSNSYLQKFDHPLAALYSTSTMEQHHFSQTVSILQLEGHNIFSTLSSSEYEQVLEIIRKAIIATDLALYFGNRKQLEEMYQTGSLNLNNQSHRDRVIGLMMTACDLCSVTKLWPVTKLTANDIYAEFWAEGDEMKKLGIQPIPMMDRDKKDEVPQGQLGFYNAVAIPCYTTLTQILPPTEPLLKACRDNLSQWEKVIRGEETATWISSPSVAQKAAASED

Structure (SMILES) | IC50 [µM]
O=C1c2c(ccnc2-c2ccncc2)CN1CCc1ccc2ccccc2n1 [Example 1, 4-Pyridin-4-yl-2-(2-quinolin-2-yl-ethyl)-1,2-dihydro-pyrrolo[3,4-c]pyridin-3-one; compound with trifluoro-acetic acid] | < 0.1
O=C1c2c(cccc2-c2ccncc2)CN1CCc1ccc2ccccc2n1 [Example 5, 7-Pyridin-4-yl-2-(2-quinolin-2-yl-ethyl)-2,3-dihydro-isoindol-1-one] | < 0.1
CC1(C)c2cccc(-c3ccncc3)c2C(=O)N1CCc1ccc2ccccc2n1 [Example 6, 3,3-Dimethyl-7-pyridin-4-yl-2-(2-quinolin-2-yl-ethyl)-2,3-dihydro-isoindol-1-one] | 0.1 to 0.2
O=C1c2c(cccc2-c2ccncc2)CN1CC(F)(F)c1ccc2ccccc2n1 [Example 13, 2-(2,2-Difluoro-2-quinolin-2-yl-ethyl)-7-pyridin-4-yl-2,3-dihydro-isoindol-1-one] | < 0.1
O=C1c2c(-c3ccncc3)ccc(F)c2CN1CCc1ccc2ccccc2n1 [Example 16, 4-Fluoro-7-pyridin-4-yl-2-(2-quinolin-2-yl-ethyl)-2,3-dihydro-isoindol-1-one] | < 0.1
Cn1c2cccc(-c3ccncc3)c2c(=O)n1CCc1ccc2ccccc2n1 [Example 17, 1-Methyl-4-(pyridin-4-yl)-2-(2-(quinolin-2-yl)ethyl)-1,2-dihydroindazol-3-one] | < 0.1
O=c1c2c(-c3ccncc3)cccc2on1CCc1ccc2ccccc2n1 [Example 18, 4-Pyridin-4-yl-2-(2-quinolin-2-yl-ethyl)-benzo[d]isoxazol-3-one] | < 0.1
O=C1c2c(cccc2-c2ccccc2)CN1CCc1ccc2ccccc2n1 [Example 21, 7-Phenyl-2-(2-quinolin-2-yl-ethyl)-2,3-dihydro-isoindol-1-one] | 0.1 to 0.2
O=C1c2c(cccc2-c2ccc(F)cc2)CN1CCc1ccc2ccccc2n1 [Example 22, 7-(4-Fluoro-phenyl)-2-(2-quinolin-2-yl-ethyl)-2,3-dihydro-isoindol-1-one] | < 0.1
COc1ccc(-c2cccc3c2C(=O)N(CCc2ccc4ccccc4n2)C3)cc1 [Example 23, 7-(4-Methoxy-phenyl)-2-(2-quinolin-2-yl-ethyl)-2,3-dihydro-isoindol-1-one] | < 0.1
O=C1c2c(cccc2-c2ccsc2)CN1CCc1ccc2ccccc2n1 [Example 25, 2-(2-Quinolin-2-yl-ethyl)-7-thiophen-3-yl-2,3-dihydro-isoindol-1-one] | 0.1 to 0.2
O=C1c2c(cccc2-c2cccc(F)c2)CN1CCc1ccc2ccccc2n1 [Example 27, 7-(3-Fluoro-phenyl)-2-(2-quinolin-2-yl-ethyl)-2,3-dihydro-isoindol-1-one] | 0.1 to 0.2
O=C1c2c(cccc2-c2ccccc2F)CN1CCc1ccc2ccccc2n1 [Example 29, 7-(2-Fluoro-phenyl)-2-(2-quinolin-2-yl-ethyl)-2,3-dihydro-isoindol-1-one] | 0.1 to 0.2
O=C1c2c(cccc2-c2cccnc2)CN1CCc1ccc2ccccc2n1 [Example 30, 7-Pyridin-3-yl-2-(2-quinolin-2-yl-ethyl)-2,3-dihydro-isoindol-1-one] | < 0.1
O=C1c2c(cccc2-c2ccco2)CN1CCc1ccc2ccccc2n1 [Example 31, 7-Furan-2-yl-2-(2-quinolin-2-yl-ethyl)-2,3-dihydro-isoindol-1-one] | 0.2 to 0.5
COc1ccc(-c2cccc3c2C(=O)N(CCc2ccc4ccccc4n2)C3)cc1F [Example 32, 7-(3-Fluoro-4-methoxy-phenyl)-2-(2-quinolin-2-yl-ethyl)-2,3-dihydro-isoindol-1-one] | 0.2 to 0.5
O=C1c2c(cccc2-c2ccc(F)c(F)c2)CN1CCc1ccc2ccccc2n1 [Example 33, 7-(3,4-Difluoro-phenyl)-2-(2-quinolin-2-yl-ethyl)-2,3-dihydro-isoindol-1-one] | 0.2 to 0.5
O=C1c2c(cccc2-c2ccc3c(c2)OCO3)CN1CCc1ccc2ccccc2n1 [Example 34, 7-Benzo[1,3]dioxol-5-yl-2-(2-quinolin-2-yl-ethyl)-2,3-dihydro-isoindol-1-one] | 0.1 to 0.2

From US9938269B2, “Inhibitor compounds of phosphodiesterase type 10A” (ABBVIE INC., priority 2011, dated 2018)
